This note sets out measurements from ChEMBL document CHEMBL3763136, “Synthesis and neuroprotective activity of dictyoquinazol A and analogues” (Bioorg Med Chem, 2016).

Calls of active or inactive are those of the source. The rule behind the calls is not given here.

The subject of data set [1] is SH-SY5Y. As to the kind of experiment: Neuroprotective activity against L-glutamate-induced excitotoxicity in human SH-SY5Y cells assessed as increase in cell viability at 0.3 uM after 20 hrs by MTT assay. It counts as functional. For orientation: Tetrazolium assays rely on reduction of a dye to a coloured formazan, in cell work by metabolically active cells.
For data set [2], the system named is SH-SY5Y. As to the kind of experiment: Neuroprotective activity against staurosporine-induced apoptosis in human SH-SY5Y cells assessed as increase in cell viability at 0.3 uM after 20 hrs by MTT assay. The format is functional.
In data set [3] the test system is SH-SY5Y. Briefly: Neuroprotective activity against H2O2-induced oxidative stress in human SH-SY5Y cells assessed as increase in cell viability at 0.6 to 1.2 uM after 20 hrs by MTT assay. The format is functional.
The subject of data set [4] is SH-SY5Y. As to the kind of experiment: Cytotoxicity against human SH-SY5Y cells assessed as cell viability up to 3 uM after 24 hrs by MTT assay. The format is cell-based.
For data set [5], the system named is SH-SY5Y. Briefly: Cytotoxicity against human SH-SY5Y cells assessed as cell viability above 10 uM after 24 hrs by MTT assay. The format is cell-based.
Data set [6] deals with SH-SY5Y. As to the kind of experiment: Neuroprotective activity against H2O2-induced oxidative stress in human SH-SY5Y cells assessed as increase in cell viability after 20 hrs by MTT assay. The format is functional, cell-based.
In data set [7] the test system is SH-SY5Y. As to the kind of experiment: Neuroprotective activity against staurosporine-induced apoptosis in human SH-SY5Y cells assessed as increase in cell viability after 20 hrs by MTT assay. It counts as functional, cell-based.
Data set [8] has as its system SH-SY5Y. Briefly: Cytotoxicity against human SH-SY5Y cells assessed as cell viability at 0.3 to 3 uM after 24 hrs by MTT assay. The format is cell-based.
The subject of data set [9] is SH-SY5Y. Briefly: Neuroprotective activity against L-glutamate-induced excitotoxicity in human SH-SY5Y cells assessed as increase in cell viability after 20 hrs by MTT assay. The format is functional, cell-based.
The test system of data set [10] is SH-SY5Y. Briefly: Neuroprotective activity against L-glutamate-induced excitotoxicity in human SH-SY5Y cells assessed as increase in cell viability at 0.6 uM after 20 hrs by MTT assay. The format is functional.

Consider `COc1ccc(-n2cnc3ccc(OC)cc3c2=O)c(CO)c1` [DICTYOQUINAZOLE A], for which the “%max” value in the data set on SH-SY5Y [1] was 10%; in the data set on SH-SY5Y [3], 22%. Besides, the Activity in the data set with SH-SY5Y [2] is reported as 41%; in the data set with SH-SY5Y [4], “Non-toxic”; in the data set with SH-SY5Y [5], “Toxic”.

Consider `COC(=O)c1cc(OC)ccc1-n1cnc2ccc(OC)cc2c1=O`, for which the result in the data set with SH-SY5Y [6], with SH-SY5Y [7] and in the data set on SH-SY5Y [9] was Active. The Activity result with SH-SY5Y [8] is given as “Non-toxic”.

Consider `O=c1c2ccccc2ncn1-c1ccccc1CO`, for which, in the data set with SH-SY5Y [6], the outcome was inactive. For the same compound, the outcome with SH-SY5Y [7] was Active. The Activity result with SH-SY5Y [4] is recorded as “Non-toxic”; in the data set on SH-SY5Y [10], 35%; with SH-SY5Y [5], “Toxic”.

Consider `COc1ccc(-n2cnc3ccc(OC)cc3c2=O)cc1`, for which the outcome with SH-SY5Y [6], with SH-SY5Y [7] and in the data set with SH-SY5Y [9] was Active. Besides, the Activity entry in the data set with SH-SY5Y [8] is reported as “Non-toxic”.

In the case of `COc1ccc(-n2c(=S)[nH]c3ccc(OC)cc3c2=O)c(CO)c1`, the result in the data set with SH-SY5Y [6] and in the data set on SH-SY5Y [9] was Active. The result in the data set on SH-SY5Y [7] was inactive. The Activity entry with SH-SY5Y [8] was “Non-toxic”.

With `COc1ccc(-n2c(=O)[nH]c3ccc(OC)cc3c2=O)c(CO)c1`, the result in the data set on SH-SY5Y [6], in the data set on SH-SY5Y [7] and in the data set on SH-SY5Y [9] was Active. Besides, the Activity result with SH-SY5Y [8] is “Non-toxic”.

On to `COc1ccc(-n2cnc3ccc(OC)cc3c2=O)c(CF)c1`, for which, in the data set on SH-SY5Y [6], the outcome was inactive. Further, the result with SH-SY5Y [7] and with SH-SY5Y [9] was Active. Further, the Activity result is given as “Non-toxic” in the data set on SH-SY5Y [4] and “Toxic” in the data set on SH-SY5Y [5].

With `COc1ccc(-n2cnc3ccc(OC)cc3c2=O)c(COC=O)c1`, the Activity entry in the data set with SH-SY5Y [4] is recorded as “Non-toxic”; in the data set on SH-SY5Y [5], “Toxic”.
